Values of other authors in patent US8372933B2, “Hyperbranched polymers based on cyclodextrins and poly (amidoamines) for the controlled release of insoluble drugs” (L'Urederra Fundacion Para el Desarrollo Tecnologico y Social, priority 2007, dated 2013).

Details: oral

In the case of `Nc1nc2c(ncn2COCCO)c(=O)[nH]1` [Acyclovir], the bioavailability is listed as 15-30%.
